Like-named read-outs stand apart in the source and are kept apart here.
Legend:
[1] = tested on: IL-1β, TNF-α, IL-6 and IL-8 secretion in THP-1 cells; assay: Cytokine secretion in LPS-stimulated THP-1 cells (ELISA); format: cell-based, human; conditions: THP-1, LPS 5 μg/mL, 6 hours; VR23 0.5-6 μM, BTZ 6 nM, CFZ 1 nM, DEX 2 μM
Experimental: For comparison, BTZ (6 nM), CFZ (1 nM), and DEX (2 μM) were also included. *, **, and *** are p<0.05, p<0.01, and p<0.001, respectively, which denote a significant difference from the LPS-only group. The mean±SEM (n=3) values were determined by a Dunnett's test.
(§1) The enzyme-linked immunosorbent assay (ELISA) is a quantitative measurement based on sandwich-based enzyme linking, using a protein-specific capture antibody to determine the levels of single or multiple chemokines and cytokines.
Data shown in FIG. 11 are the results of experiments carried out to investigate VR23's effect on the levels of inflammatory cytokines. […] For comparison, BTZ (6 nM), CFZ (1 nM) and DEX (2 μM) were also included. The levels of cytokine secreted in cell culture supernatants were measured by a single-analyte ELISA. The IC50 value of VR23 is 3 μM and the concentrations of BTZ, CFZ and DEX used are their respective IC50 values.

[2] = tested on: IL-8 secretion in THP-1 cells; assay: IL-8 secretion in TNF-α-stimulated THP-1 cells (ELISA); format: cell-based, human; conditions: THP-1, TNF-α 10 ng/mL, 6 hours; VR23 at IC50 concentration (between 2 and 4 μM), BTZ 6 nM, CFZ 1 nM
Experimental: For comparison, BTZ (6 nM), CFZ (1 nM), and DEX (2 μM) were also included. *** is p<0.001, which denotes a significant difference from the TNF-α-only group, determined by a Dunnett's test. The values presented are the mean±SEM (n=3).
as §1
The data in FIG. 12 show the levels of IL-8 secreted in the THP-1 culture medium in response to TNF-α alone (10 ng/mL) or in combination with varying concentrations (0.5, 1.0, 2, 4 or 6 μM) of VR23. For comparison, BTZ (6 nM), CFZ (1 nM) and DEX (2 μM) were also included. The measurement time was 6-hour post-stimulation. The measurement was carried out with a single-analyte ELISA.

THP-1 monocytic cells = assay: Sulforhodamine B (SRB) assay, IC50 on THP-1 cells; format: cell-based, human; conditions: read-out: IC50
Experimental: (§2) The sulforhodamine B (SRB) assay^21 was used to determine the drug concentration that half of the cell growth/viability is inhibited (IC50). Cells were cultured in 96-well plates, with 5,000 cells in 100 μL of culture medium per well. The rest of the protocol was the same as described previously^22,23.
(§3) Data shown in Table 1 are IC50 values of VR23 and other compounds, which were determined using sulforhodamine B (SRB) assays on immunologically relevant cells (THP-1, SW-982 and PBMC). […] Two well-known proteasome inhibitors, BTZ and CFZ, were included for comparison since VR23 is also a proteasome inhibitor, albeit targeting different subunits^2. The widely used anti-inflammatory DEX was included, also for comparison.
(§4) THP-1, SW982 and PBMC cells (5,000 cells/well) were treated with each compound for 48 hours. The IC50, the drug concentration reducing cell growth/viability by 50%, was determined by a dose-response four-parameter curve (generated with GraphPad Prism V. 4.02) formed by 10 two-fold dilutions (n=3).

PBMC cells = assay: Sulforhodamine B (SRB) assay, IC50 on PBMC; format: cell-based, human; conditions: read-out: IC50
Experimental: as §2, §3, §4

[3] = tested on: IL-6 and TNF-α secretion in human PBMC; assay: IL-6 and TNF-α in PHA-p-stimulated human PBMC (ELISA); format: cell-based; conditions: PHA-p 10 μg/mL, 6 hours
Experimental: (§5) The values presented are the mean±SEM (n=2).
as §1
Data in FIG. 14 show the levels of IL-6 (upper plot) and TNF-α (lower plot) in human PBMC (1×10^6/mL cells) stimulated with 10 μg/mL phytohemagglutinin-p (PHA-p) (10 μg/mL) for 6 hours, in the absence (control) or presence of varying concentrations of VR23 (0.38, 0.75, 1.5, 3 or 6 μM) or BTZ (6.25, 12.5, 25 or 50 nM). The measurement was carried out with a single-analyte ELISA.

[4] = tested on: IL-6 secretion in SW-982 synovial cells; assay: IL-6 secretion in IL-1β-stimulated SW-982 synovial cells (ELISA); format: cell-based, human; conditions: SW-982, IL-1β 1 ng/mL, 6 hours; VR23 10 μM, HCQ 60 μM
Experimental: The mean±SEM (n=2) values were determined by a Dunnett's test.
as §1
The measurement was carried out with a single-analyte ELISA. […] While not wishing to be limited by theory, cytokine IL-6 is strongly implicated to the progress of rheumatoid arthritis^29.

[5] = tested on: human fibroblast-like synoviocytes from rheumatoid arthritis patients (HFLS-RA); assay: Viability test, HFLS-RA cells; format: cell-based; conditions: 6 hours, IL-1β 10 ng/mL, VR23 1.25-5.0 μM, HCQ 7.5-30 μM
Experimental: The values presented are the mean±SEM (n=3).
The CCK-8 assay was used to count viable cells under the various treatment conditions. Briefly, cells were cultured in 11 columns of a 96-well clustered plate, with 5,000 cells in 100 μL of culture medium per well, excluding one column for a media-only control. The plate was incubated overnight at 37° C. in the humidified conditions, followed by treatment with test compounds diluted in the culture medium (10 μL). Each column was treated with a different condition so that each treatment could have 8 repeats. […] The absorbance was measured using an automatic plate reader (Synergy H4 Hybrid Multi-Mode Microplate Reader, BioTek, Montreal, Canada) at 450 nm wavelength. The cell viability of each treatment sample was determined by using the following equation (%)=(Abstrtmt-Absmedia)/(AbsuT-Absmedia)*100, where Abstrtmt is the absorbance value of cells with the various treatment conditions; Absmedia is the absorbance of the well containing media only; AbsuT is the absorbance of the wells with untreated cells.
This finding was extended to human cells relevant to autoimmune diseases. […] Cytokine levels in cell culture supernatants were determined by a single-analyte ELISA. […] The cytokine secretion was measured in cell culture supernatants by a single-analyte ELISA.

[6] = tested on: IL-6 secretion in HFLS-N cells; assay: IL-6 secretion in stimulated HFLS-N cells (ELISA); format: cell-based, human; conditions: IL-1β 10 ng/mL, 6 hours, VR23 2.5-10 μM, HCQ 15 or 30 μM
Experimental: (§6) The mean±SEM (n=3) values were determined by a Dunnett's test.
as §5, §1
(§7) This finding was extended to human cells relevant to autoimmune diseases. Human fibroblast-like synoviocytes (HFLS) are present in the synovial fluid of joint capsules and produce harmful molecules that contribute to joint destruction and the exacerbation of the disease in rheumatoid arthritis patients. […] The cells were then stimulated with IL-1β (FIG. 16) or LPS (FIG. 17), in the absence (control; IL-1β only) or presence of VR23 or HCQ. HCQ was included for comparison because it is often used to treat rheumatoid arthritis. […] For “VR23 only” samples, 5 μM VR23 was used. Fifty thousand HFLS cells per mL were used for the experiment. Cytokine levels in cell culture supernatants were determined by a single-analyte ELISA. […] Fifty thousand HFLS cells per mL were used for the experiment. The cytokine secretion was measured in cell culture supernatants by a single-analyte ELISA.

[7] = tested on: SW-982 synovial cell line; assay: Sulforhodamine B (SRB) assay, IC50 on SW-982 cells; format: cell-based; conditions: Homo sapiens; SW982 cells, 48 hours, SRB; read-out: IC50
Experimental: as §2, §3, §4

[8] = tested on: IL-6 secretion in HFLS-RA cells; assay: IL-6 secretion in stimulated HFLS-RA cells (ELISA); format: cell-based, human; conditions: HFLS-RA, IL-1β 10 ng/mL, 6 hours; VR23 2.5-10 μM, HCQ 15 or 30 μM
Experimental: as §6, §5, §1, §7

Row | IC50 (THP-1 monocytic cells; 48 hours) [nM] | IC50 (THP-1 monocytic cells; Homo sapiens, THP-1, 48 h) [nM] | IC50 [7] [nM] | SMILES | levels of inflammatory cytokines IL-1β, TNF-α, IL-6, IL-8 [1] | IL-8 secretion [2] | IC50 (PBMC cells; 48 hours) [nM] | IC50 (PBMC cells; Homo sapiens, 48 h) [nM] | PHA-induced IL-6 ([3]; VR23 1.5 μM, BTZ 6 nM) | PHA-induced TNF-α ([3]; VR23 3.0 μM, BTZ 4× the IC50 dose) | secretion of IL-6 [4] | cell viability [5] | IL-6 secretion, dose dependence [6] | IL-6 secretion, dose dependence [8]
1 | 5.91 ± 0.34 | 6 |  | CC(C)C[C@H](NC(=O)[C@H](Cc1ccccc1)NC(=O)c1cnccn1)B(O)O [BTZ, bortezomib, reference compound] | do not | substantially reduced IL-8 | 5.86 ± 0.3 | 6 | reduced the level of IL-6 | largely ineffective in reducing the level of TNF-α |  |  |  | 
2 | 1.01 ± 0.11 | 1 |  | CC(C)C[C@H](NC(=O)[C@H](CCc1ccccc1)NC(=O)CN1CCOCC1)C(=O)N[C@@H](Cc1ccccc1)C(=O)N[C@@H](CC(C)C)C(=O)[C@@]1(C)CO1 [CFZ, carfilzomib, reference compound] | do not | not effective at all |  |  |  |  |  |  |  | 
3 | 2070 ± 67 | 2000 |  | C[C@@H]1C[C@H]2[C@@H]3CCC4=CC(=O)C=C[C@]4(C)[C@@]3(F)[C@@H](O)C[C@]2(C)[C@@]1(O)C(=O)CO [DEX, Dexamethasone] |  |  |  |  |  |  |  |  |  | 
4 |  |  | 28200 | CCN(CCO)CCCC(C)Nc1ccnc2cc(Cl)ccc12 (stereo not shown) [HCQ, hydroxychloroquine, reference compound] |  |  |  |  |  |  | comparable | none of the conditions examined significantly affected the viability | decreases in a dose dependent manner | decreases in a dose dependent manner

— patent US11357774B2, “Use of a quinoline sulfonyl compound for treatment of inflammation, inflammatory disorders, autoimmune disorders and malaria” (priority 2019, dated 2022)
